Experimental findings from patent publication US6838249B2, “Neuroblastoma cell lines expressing the α2δ subunit of calcium channels and methods therefore” (priority 2001, dated 2005) are described below.

One assay deals with IMR32 cells. The assay is described as follows: Differentiation of IMR32 cells with BrdU, density of [^3H]GBP binding sites. The following applies: 10 μM BrdU for 10 to 12 days. It is filed as cell-based, human. The procedure: IMR32 cells, SK-N-MC cells and NG 108 cells as well as cells treated in culture with 10 μM of BrdU for 10 to 12 days were used. Cells were harvested and homogenates were made in HEPES/KOH buffer, pH 7.4. The homogenates were centrifuged for 15 min at 1000×g, and the supernatants were centrifuged at 40000×g for 15 min to obtain cell membranes.

In assay [1] the test system is α2δ subunit of calcium channels. The following applies: 10 nM [^3H]GBP; for Ki: one-site binding model.

Like-named read-outs stand apart in the source and are kept apart here.

Regarding `O=c1[nH]c(=O)n([C@H]2C[C@H](O)[C@@H](CO)O2)cc1Br` [BrdU, 5-Bromo-2′-deoxyuridine], the “expression of [^3H]GBP binding sites” value with IMR32 cells is recorded as “increased”.
With `CSCC[C@H](N)C(=O)O` [L-methionine], the “inhibition of [^3H]GBP binding to IMR32 cell membranes” value in assay [1] (varying concentrations (FIG. 3)) was “dose-dependently inhibited”. In addition, the Ki in assay [1] (read-out: Ki (nM) BrdU, differentiated (BrdU) IMR32 cell membranes) stood at 30 nM; in assay [1] (read-out: Ki (nM) Control, undifferentiated (Control) IMR32 cell membranes), 39 nM.

By Ki is commonly meant the dissociation constant of the complex between target and ligand, obtained from inhibition or displacement.
